Target: GTP-binding protein Rheb (Homo sapiens, UniProt Q15382)
Experiment: In Vitro Kinase Assay: For the Rheb-dependent in vitro kinase assay, HA-GST-Rheb was first loaded with GTP-γ-S (Millipore #20-176) by incubating 600 ng/μL Rheb with 10 mM EDTA and 0.4 mM GTP-γ-S at 30° C. for 10 minutes. MgCl2 was added to a final concentration of 20 mM to stop the reaction. This mixture was used at 20× in the kinase assay.Loaded HA-GST-Rheb was then incubated with compound (final DMSO concentration 1%) for 30 minutes at room temperature. mTORC1, GFP-4E-BP1 substrate (Life Technologies #PV4759), and kinase assay buffer (HEPES pH 7.4, KCl, MgCl2) were added to the Rheb-compound mixture and incubated at room temperature for 20 minutes. ATP was then added, and the kinase reaction proceeded at 30° C. for 45 min before being stopped by the addition of SDS-PAGE loading buffer for Westerns or 10 mM EDTA for the LanthaScreen readout. During the kinase reaction, the final concentration of reagents is as follows: Rheb—30 ng/μL, compound—variable, GTPγS—0.02 mM, EDTA—0.5 mM, MgCl2—1 mM, mTORC1—fixed volume of prep (molarity unknown), GFP-4E-BP1 substrate—15 ng/μL, ATP—0.5 mM. For LanthaScreen analysis (Thermo Fisher #PV4757), the manufacturer's instructions were followed and conditions were optimized for the amount of Rheb and mTORC1. The final concentration of reagents was as follows: 100 nM loaded HA-GST-Rheb, compound (variable), 0.5 mM EDTA, 10 mM MgCl2, 25 mM HEPES pH 7.4, 50 mM KCl, mTORC1 (fixed volume—0.1 μL in 10 μL total volume), 0.4 μM GFP-4E-BP1 substrate, 0.5 mM ATP. Results were read on an EnVision reader (PerkinElmer) using 495ex/520em filters (Life Technologies, #PV00315).

Sequence of GTP-binding protein Rheb (Q15382 whole entry): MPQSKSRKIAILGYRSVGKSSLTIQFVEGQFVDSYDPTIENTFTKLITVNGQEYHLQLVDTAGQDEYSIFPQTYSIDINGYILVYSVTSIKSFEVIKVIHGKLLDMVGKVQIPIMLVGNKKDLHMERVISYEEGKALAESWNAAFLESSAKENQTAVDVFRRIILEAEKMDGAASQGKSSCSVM

IC50, < 10 µM:
O=C(O)c1cc2c(Sc3ccc(C(F)(F)F)cc3)cc(Cl)cc2[nH]1
CN1CCCN(c2ccc(NC(=O)c3cc4c(-c5cc(Cl)cc(Cl)c5)cc(Cl)cc4[nH]3)cc2F)CC1
Cc1cc(C(C)(C)C)ccc1Sc1cc(Cl)cc2[nH]c(CO)cc12
OCc1cc2c(Sc3ccc(Cl)cc3Cl)cc(Cl)cc2[nH]1
Cc1cc(C(C)(C)C)ccc1Sc1cc(Cl)cc2[nH]c(C(=O)O)cc12

Source: ChEMBL document CHEMBL5729117, “Heteroaryl Rheb inhibitors and uses thereof” (2022)
